Measured values reported in US20230346734A1, “COMBINATION THERAPY OF ATRA OR OTHER RETINOIDS WITH IMMUNOTHERAPEUTIC AGENTS BINDING TO BCMA” (JULIUS-MAXIMILIANS-UNIVERSITÄT WÜRZBURG, priority 2020, published 2023).

Key:
[1] = system: BCMA expression on MM.1S; test: BCMA expression on MM.1S by flow cytometry after ATRA treatment; type: cell-based, human
Protocol: (§1) Flow cytometric analysis of BCMA-expression on MM.1S, OPM-2 and NCI-H929 cell lines that had been cultured in the absence or presence of 50 nM ATRA for 72 hours. […] 7-AAD was used to exclude dead cells from analysis.

[2] = system: BCMA expression on OPM-2; test: BCMA expression on OPM-2 by flow cytometry after ATRA treatment; type: cell-based, human
Protocol: as §1

[3] = system: BCMA surface molecules on MM.1S cells; test: BCMA molecule distribution on MM.1S cells by dSTORM; type: cell-based, human; conditions: vs untreated
Excerpt: Representative photographs of BCMA molecule distribution on untreated and ATRA-treated MM.1S cells visualized by direct stochastic optical reconstruction microscopy (dSTORM).

[4] = system: BCMA RNA levels in MM.1S; test: BCMA RNA levels in MM.1S by qRT-PCR; type: cell-based, human; conditions: 50 nM ATRA, 48 hours, qPCR
Protocol: (§2) BCMA RNA levels in MM.1S (n=4) and OPM-2 (n=3) by quantitative reverse transcription PCR (qRT-PCR) assay was quantified after incubation with increasing doses of ATRA for 48 hours. Depicted are mean values+SD.
(§3) Total RNAs were extracted with RNeasy Mini Kit (Qiagen, Hilden, Germany) according to the manufacturer's protocol. Reverse transcription-quantitative polymerase chain reaction (RT-qPCR) analysis of BCMA was performed with 1 μg of total RNA and SuperScript™ II Reverse Transcriptase (Thermo Fisher Scientific, Inc Massachusetts). The quality and integrity of the RNA was verified by a Bioanalyzer 2100 (Agilent Technologies, Santa Clara, CA). The primer sequences used were as follows: BCMA forward primer, 5′-TGTTCTTCTAATACTCCTCCTCT-3′ (SEQ ID NO: 25) and reverse primer, 5′-AACTCGTCCTTTAATGGTTC-3′ (SEQ ID NO: 26). […] RT-qPCR was performed in a 7900HT Real-time PCR System (Thermo Fisher Scientific, Inc Massachusetts) using Quantitec SYBR green Kit (Qiagen, Hilden, Germany) in a 7900 HT Fast Real Time PCR System (Applied Biosystems, Foster City, CA). […] The threshold cycle for each sample was selected from the linear range and converted to a starting quantity by interpolation from a standard curve generated on the same plate for each set of primers. […]

[5] = system: BCMA RNA levels in OPM-2; test: BCMA RNA levels in OPM-2 by qRT-PCR; type: cell-based, human; conditions: 50 nM ATRA, 48 hours, qPCR
Protocol: as §2, §3

[6] = system: BCMA CD4+ and CD8+ CAR T-cells; test: Viability of BCMA-CAR T-cells after incubation with ATRA; type: cell-based, human; conditions: increasing doses of ATRA, 72 hours; 7-AAD- T cells
Protocol: Viability of BCMA CD4+ and CD8+ CAR T-cells after incubation with increasing doses of ATRA for 72 hours determined by flow cytometry. […] Data are presented as mean values+SD (n=3).

[7] = system: EGFRt_BCMA-CAR transgene expression of BCMA CD4+ and CD8+ CAR T-cells; test: EGFRt_BCMA-CAR transgene expression of BCMA-CAR T-cells after incubation with ATRA; type: cell-based, human; conditions: increasing doses of ATRA, 72 hours; EGFRt+ T cells
Protocol: EGFRt_BCMA-CAR transgene expression of BCMA CD4+ and CD8+ CAR T-cells after incubation with increasing doses of ATRA for 72 hours determined by flow cytometry. […] Data are presented as mean values+SD (n=3).

[8] = system: MM.1S myeloma cells; test: Cytolytic activity of CD8+ BCMA-CAR T-cells against pretreated MM.1S, bioluminescence-based assay; type: cell-based, human; conditions: MM.1S pretreated 72 hours with 100 nM ATRA and/or 0.01 uM GSI; 4 h co-incubation
Protocol: Myeloma cell lines were incubated with 100 nM ATRA and/or 0.01 uM GSI for 72 hours or were left untreated. Cytolytic activity of CD8^+ BCMA-CAR T-cells was determined in a bioluminescence-based assay after 4 h of co-incubation with target cells. Assay was performed in triplicate wells with 5,000 target cells per well. Data are presented as mean values+SD of n=4 independent experiments.
(§4) Cytolytic activity was analyzed in a bioluminescence-based assay using firefly-luciferase (ffluc)-transduced target cells. Proliferation was measured by dilution of CFSE proliferation dye by flow cytometry. Therefore, CFSE-labeled CAR T-cells were incubated with target cells for 72 h at a 4:1 effector to target cell ratio. IFNγ and IL-2 were measured by ELISA (Biolegend, Koblenz, Germany) in supernatants obtained after a 20 hour co-culture of T-cells with target cells (effector:target ratio=4:1).

[9] = system: BCMA-CAR T-cells co-incubated with MM.1S; test: Proliferation of CFSE-labeled BCMA-CAR T-cells after stimulation with pretreated MM.1S; type: cell-based, human; conditions: MM.1S pretreated 72 hours with 100 nM ATRA and/or 0.01 uM GSI; CFSE after three days
Protocol: MM.1S were incubated with 100 nM ATRA and/or 0.01 uM GSI for 72 hours or were left untreated. Afterwards, CFSE-labeled BCMA-CAR T-cells were co-incubated with these target cells. Proliferative capacity of BCMA-CAR T-cells was determined after three days by measuring the reduction of CFSE-labeling in effector cells. Data are presented as mean values+SD of n=3 independent experiments.
as §4

[10] = system: BCMA-CAR T-cells co-incubated with MM.1S; test: Cytokine release of BCMA-CAR T-cells after stimulation with pretreated MM.1S, ELISA; type: cell-based, human; conditions: MM.1S pretreated 72 hours with 100 nM ATRA and/or 0.01 uM GSI, 20 hours co-incubation
Protocol: MM.1S were incubated with 100 nM ATRA and/or 0.01 uM GSI for 72 hours or were left untreated. Afterwards, BCMA-CAR T-cells were co-incubated with these target cells for 20 hours. Cytokine release of BCMA-CAR T-cells was determined in the supernatant by ELISA. Assay was performed in triplicate wells. Data are presented as mean values+SD of n=3 independent experiments.
as §4

[11] = system: BCMA expression on MM.1S; test: BCMA expression on MM.1S from bone marrow of ATRA-treated NSG mice; type: in vivo; conditions: NSG/MM1.S; ATRA 30 mg/kg i.p. every day, 4 days; P=0.002
Protocol: NSG mice were inoculated with MM.1S cells. After twelve days, mice were i.p. injected with 30 mg/kg ATRA for 4 days. BCMA-expression on MM.1S cells obtained from bone marrow of untreated and ATRA-treated mice was analysed by flow cytometry.
The University of Wurzburg Institutional Animal Care and Use Committee approved all mouse experiments. Six- to eight-week old female NSG (NOD-scid IL2rynull) mice were obtained from Charles River and inoculated by tail vein injection with 2×10^6 MM.1S/ffluc_GFP at day 0 and randomly allocated to ATRA-treatment and control group. ATRA (Sigma Aldrich, Darmstadt, Germany) was formulated in corn oil and administered by intraperitoneal (i.p) injection (30 mg/kg) for four days, starting twelve days after tumor inoculation.
This encouraged experiments in a murine xenograft model of myeloma (NSG/MM1.S). In a first set of experiments, n=6 mice were inoculated with MM1.S cells (2×10^6 cells given i.v. by tail vein injection) for 12 days to establish systemic myeloma, and then administered a 4-day treatment course with either ATRA (n=3 mice; 30 mg/kg given i.p. every day) or solvent control (n=3 mice). The following day, mice were sacrificed, MM.1S myeloma cells were isolated from bone marrow and BCMA expression analyzed by flow cytometry. […] The in vivo upregulation of BCMA after GSI treatment was shown by Pont et. al. in 2019^40.

[12] = system: BCMA expression on NCI-H929; test: BCMA expression on NCI-H929 by flow cytometry after ATRA treatment
[13] = system: BCMA expression on primary myeloma cells; test: BCMA expression on primary myeloma cells by flow cytometry after ATRA treatment
[14] = deltaMFI at baseline normalized to 1, 72 hours

Compound: CC1=C(/C=C/C(C)=C/C=C/C(C)=C/C(=O)O)C(C)(C)CCC1 [ATRA, all-trans retinoic acid]
- time for BCMA expression to return to baseline levels upon discontinuation of ATRA treatment [1]: ≤ 72 h
- BCMA expression when ATRA treatment was recommenced ([1]; 72 hours after re-exposition): increased again with the same amplitude
- BCMA expression, deltaMFI ([1]; ATRA (50 nM per FIG. 1) for 72 hours, untreated deltaMFI 1,098): 2,709
- relative increase in BCMA expression after ATRA treatment [1, 14]: 1.9 fold
- time for BCMA expression to return to baseline levels upon discontinuation of ATRA treatment [2]: ≤ 72 h
- BCMA expression when ATRA treatment was recommenced ([2]; 72 hours after re-exposition): increased again with the same amplitude
- BCMA expression, deltaMFI ([2]; ATRA (50 nM per FIG. 1) for 72 hours, untreated deltaMFI 3,558): 7,358
- relative increase in BCMA expression after ATRA treatment [2, 14]: 1.9 fold
- BCMA surface molecules by dSTORM after ATRA treatment [3]: increase of BCMA surface molecules
- relative increase in BCMA transcripts [4]: 1.8 fold
- relative increase in BCMA transcripts [5]: 2.1 fold
- effect on viability of BCMA-CAR T-cells [6]: no negative effect
- effect on expression of the EGFRt_BCMA-CAR transgene [7]: did not diminish
- cytolytic activity of BCMA-CAR T-cells against pretreated vs non-treated target cells [8]: superior cytolysis
- proliferative capacity of BCMA-CAR T-cells [9]: enhanced proliferative capacity
- cytokine release of BCMA-CAR T-cells [10]: enhanced
- BCMA expression on MM.1S myeloma cells from bone marrow vs control mice [11]: Significantly higher BCMA expression
- time for BCMA expression to return to baseline levels upon discontinuation of ATRA treatment [12]: ≤ 72 h
- BCMA expression when ATRA treatment was recommenced ([12]; 72 hours after re-exposition): increased again with the same amplitude
- BCMA expression, deltaMFI ([12]; ATRA (50 nM per FIG. 1) for 72 hours, untreated deltaMFI 9,883): 13,891
- relative increase in BCMA expression after ATRA treatment [12, 14]: 1.7 fold
- BCMA expression once exposure to ATRA was discontinued ([13]; 100 nM ATRA, 24 hours after removal): declined to baseline levels
- increase in deltaMFI for BCMA expression, average ([13]; 100 nM ATRA, 72 hours): 1.6 ×
- BCMA expression upon re-exposure to ATRA ([13]; 72 hours after re-exposition): increased again
- BCMA expression by flow cytometry after ATRA ([13]; n=5 patients, 72 hours, 100 nM P=0.04, 50 nM P=0.006, 25 nM P=0.04): significant increase
